One data set has as its system Vero cells. Nature of the data set: Drug cytotoxicity assay (MTT) on Vero cells. Type of data set: cell-based, African green monkey. To be noted: 72 h, Probit regression. The procedure: Vero cells were subcultured for 1-2 days to form a film. […] The digestion was drained after needle-like holes occurred on the cell surface, then cells were dispersed with a few milliliters of medium, counted, then diluted to about 5×10^7 cells/L with DMEM containing 10% fetal bovine serum and transferred to a 96-pore culture plate until monolayer formed.
Cytotoxicity test: the drugs were diluted according to the concentrations shown in Table 1-1 for cytotoxicity assays.
Different concentrations of drugs diluted with the above maintenance medium (DMEM containing 2% fetal calf serum) were added dropwise to Vero monolayer cells with 0.2 ml per pore, and for each concentration, the drugs were added in sextuplicate in 6 pores respectively. In addition, 6 pores were set up as normal control (without drugs) while another 6 pores as blank control (medium only). Cells were grown in a 37° C. incubator under 5% CO2. CPE was visualized under the invert microscope and recorded daily. After 72 h, 20 μL MTT solution (5 mg·mL^−1) was added into each pore and incubated for 4 h. The culture medium in each pore was sucked and discarded, 100 μL DMSO was added to each pore. Then the culture was shaken for 5 min, measured OD value at 492 nm to calculate the cell survival ratio. The cell survival ratio was analyzed using a Probit regression model in SPSS 18.0 statistical software, and the maximal nontoxic concentration (TC0) and median toxic concentration (TC50) of drugs against Vero cells were calculated.

Data set [1] concerns Influenza virus. The experiment in a line: Impact of the drugs on virus-induced cytopathy (MTT, ER %). It counts as cell-based.
The test system of data set [2] is influenza virus. It counts as in vivo, Kunming mice.
For the next data set, the system named is Adenovirus (AdV). Nature of the data set: Impact of the drugs on virus-induced cytopathy (MTT, ER %). Type of data set: cell-based.
Data set [3] has as its system respiratory syncytical virus (RSV). The description is as above. Type of data set: cell-based.
Data set [4] deals with Coxsackie virus A16 (CoxA16). Described as above. It counts as cell-based.
For another data set, the system named is enterovirus EV71. The description is as above. Type of data set: cell-based.
The test system of data set [5] is Coxsackie virus B3 (CVB3). Described as above. Type of data set: cell-based.
Data set [6] concerns Parainfluenza virus. Described as above. It counts as cell-based.
Data set [7] relates to Herpes simplex virus type I (HSV-1). The data set is described as above. Type of data set: cell-based.
In data set [8] the test system is parainfluenza virus. It counts as in vivo, Kunming mice.
The nature of data set [9]: Solubility of the synthesized white solid. It counts as physicochemical. To be noted: white solid of Embodiment 1.
The mark [10] stands for this setting: mice, influenza virus 15LD50 nasally, 19.5 mg/kg/d intragastric, 5 days.
Where [11] appears, read: mice, parainfluenza virus 15LD50 nasally, 19.5 mg/kg/d intragastric, 5 days.
Setting [12] is: summary of Table 1-3, Vero cells.
[13] abbreviates: mice, parainfluenza virus 15LD50 nasally, 3.25 mg/kg/d (low-dose) intragastric, 5 days.

Where two headings read alike, the source gives them in different places. Marks after values point to notes of the source that are not given here.

Turning to `CCOC(=O)C1=C[C@@H](OC(CC)CC)[C@H](NC(C)=O)[C@@H](N)C1` [Oseltamivir phosphate, reference compound], the “Maximal non-cytotoxic concentration (TC0)” value in the data set on Vero cells is recorded as 0.28 g/L. For the same compound, the “Median toxic concentration (TC50)” value in the data set with Vero cells stood at 832 µg/mL. Further, the “antiviral efficiency (ER %)” value is recorded as 81.76** % with Influenza virus [1] (Vero cells, 100 TCID50, 72 h, MTT, drug at maximal non-cytotoxic concentration or so (Table 1-2 last row: phillyrin 0.01, ribavirin 0.70, oseltamivir phosphate 0.30 g/L)); 10.31% with Adenovirus (AdV); 37.60% in [3]; 2.95% in data set [4]; 51.86% in the data set on enterovirus EV71; 1.64% in data set [5]. For the same compound, the results for the “antiviral efficiency (ER %)” value (with Parainfluenza virus [6]; in data set [7]) were 94.52** % and 66.56** %, respectively. The “Lung index (X ± S)” value with influenza virus [2] (setting [10]) is listed as 1.191 ± 0.062; in the data set with parainfluenza virus [8] (setting [11]), 1.256 ± 0.057. In addition, the entries for the “Lung index Inhibitory rate (%)” value in the data set on influenza virus [2] (setting [10]) and with parainfluenza virus [8] (setting [11]) were 20.71% and 21.56%, respectively.
phillyrin: the “Maximal non-cytotoxic concentration (TC0)” value in the data set with Vero cells was 0.006 g/L. Moreover, the “Median toxic concentration (TC50)” value in the data set with Vero cells is 550 µg/mL. Besides, the “antiviral efficiency (ER %)” value in the data set with Influenza virus [1] is recorded as 75.38** %; with Adenovirus (AdV) it was 75.14** %; in data set [3], 80.40** %; in data set [4], 75.08** %; in the data set with enterovirus EV71, 84.85** %; in [5] it was 75.27** %. Further, the “antiviral efficiency (ER %)” value in the data set with Parainfluenza virus [6] is 84.96** %; in data set [7] it was 85.00** %. Besides, the “inhibitory effect (in words)” value (with Influenza virus [1] (setting [12]); with Adenovirus (AdV) (setting [12]); in data set [3] (setting [12]); in [4] (setting [12]); in the data set with enterovirus EV71 (setting [12]); in data set [5] (setting [12])) was “significant” in each case. The “inhibitory effect (in words)” value (in the data set with Parainfluenza virus [6] (setting [12]); in data set [7] (setting [12])) was “significant” throughout. Also, the “effect on mice viral pneumonia (in words)” value with influenza virus [2] (influenza virus, 3.25 to 13.0 mg/kg/d) is “significant inhibitory effect”; in the data set on parainfluenza virus [8] (parainfluenza virus, 3.25 to 13.0 mg/kg/d), “significant inhibitory effect”. For the same compound, the “hemagglutination titers (in words)” value in the data set with influenza virus [2] (influenza virus, 3.25 to 13.0 mg/kg/d, compared to virus control group) is “greatly reduce”; with parainfluenza virus [8] (parainfluenza virus, 3.25 to 13.0 mg/kg/d, compared to virus control group), “greatly reduce”. In addition, the “Lung index (X ± S)” value with influenza virus [2] (mouse, in vivo, 3.25 mg/kg/day) is 1.339 ± 0.045; in the data set on influenza virus [2] (mouse, in vivo, 13 mg/kg/day), 1.290 ± 0.041; in the data set on parainfluenza virus [8] (setting [13]), 1.360 ± 0.052; in the data set on parainfluenza virus [8] (mouse, in vivo, 13 mg/kg/day), 1.2297 ± 0.071. Further, the “Lung index Inhibitory rate (%)” value amounted to 10.82% with influenza virus [2] (mouse, in vivo, 3.25 mg/kg/day); 14.51% with influenza virus [2] (mouse, in vivo, 13 mg/kg/day); 15.03% with parainfluenza virus [8] (setting [13]); 19.01% in the data set with parainfluenza virus [8] (mouse, in vivo, 13 mg/kg/day). The “solubility (in words)” value in data set [9] is “soluble in chloroform and methanol”.
